# Reference: patent publication US8501782B2, “Piperidinyl derivatives as modulators of chemokine receptor activity” (Bristol-Myers Squibb Company, priority 2007, dated 2013)
# Molecular target: T1, CCR1 (Homo sapiens, UniProt P32246)
# T1 construct: THP-1 monocytic leukemia cells are combined with 100 μg of LS WGA PS beads; endogenous in cells; host or cells: THP-1 human monocytic leukemia cells
# T1 sequence (P32246 1-355): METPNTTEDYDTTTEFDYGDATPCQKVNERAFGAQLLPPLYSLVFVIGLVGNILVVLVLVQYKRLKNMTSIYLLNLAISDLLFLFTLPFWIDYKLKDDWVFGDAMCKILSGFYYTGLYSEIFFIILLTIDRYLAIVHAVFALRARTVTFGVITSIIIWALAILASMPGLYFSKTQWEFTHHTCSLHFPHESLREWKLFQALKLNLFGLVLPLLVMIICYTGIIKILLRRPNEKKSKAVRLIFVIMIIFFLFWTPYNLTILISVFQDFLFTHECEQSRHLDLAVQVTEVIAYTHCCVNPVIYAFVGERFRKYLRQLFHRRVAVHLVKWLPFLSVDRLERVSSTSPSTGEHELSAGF
# Experiment: CCR1 ligand binding scintillation proximity assay (SPA): antagonism of MIP-1α binding to human THP-1 cells
# Settings: THP-1 monocytic leukemia cells, 0.1 nM [125I]-MIP-1α, 12 h at room temperature
# Experimental: Antagonism of MIP-1α Binding to Human THP-1 Cells
# CCR1 ligand binding scintillation proximity assay (SPA) description:
# For radioligand competition studies, a final concentration of 1×10^5 THP-1 monocytic leukemia cells are combined with 100 μg of LS WGA PS beads (Amersham, Cat.#: RPNQ 0260) in 40 μl of assay buffer (RPMI 1640 without phenol red, 50 mM HEPES, 5 mM MgCl2, 1 mM CaCl2, 0.1% BSA). The THP-1 cell/bead mixture is added to each well of a 384-well assay plate (PerkinElmer, Cat. #:6007899) containing test compound in 3-fold serial dilution, with final concentrations ranging from 8 μM to […]. A final concentration of 0.1 nM [^125I]-MIP-1α (PerkinElmer, Cat. #NEX298) in 20 μl assay buffer is added to the reaction. Sealed assay plates are incubated at room temperature for 12 h then analyzed by LEADseeker™.
# The competition data of the test compound over a range of concentrations is plotted as percentage inhibition of radioligand specific bound in the absence of test compound (percent of total signal). After correcting for non-specific binding, IC50 values are determined. The IC50 value is defined as the concentration of test compound needed to reduce [^125I]-MIP-1α specific binding by 50% and is calculated using the four parameter logistic equation to fit the normalized data. The Ki values are determined by application of the Cheng-Prusoff equation to the IC50 values, where Ki=IC50/(1+ligand concentration/Kd) The Kd of [^125I]-MIP-1α in THP-1 cells is 0.1 nM. Each experiment is run in duplicate.
row,SMILES,IC50
1,CC(CNC(=O)C1CCCC1)C(=O)N1CC[C@](O)(c2ccc(Cl)cc2)C(C)(C)C1 (stereo partly drawn) [Example 21],42 nM
2,"C[C@H](NC(=O)NC(C)(C)CC(=O)N1CC[C@](O)(c2ccc(Cl)cc2)C(C)(C)C1)C(C)(C)O [Example 63, 1-(4-((S)-4-(4-Chlorophenyl)-4-hydroxy-3,3-dimethylpiperidin-1-yl)-2-methyl-4-oxobutan-2-yl)-3-((S)-3-hydroxy-3-methylbutan-2-yl)urea]",1.9 nM
3,C[C@H](CC(=O)N1CC[C@](O)(c2ccc(Cl)cc2)C(C)(C)C1)NC(=O)[C@@H]1CC[C@@H](NC(=O)OC(C)(C)C)C1 [Example 28],46.7 nM
4,"CC(=O)N[C@@H]1CC[C@@H](C(=O)N[C@H](C)CC(=O)N2CC[C@](O)(c3ccc(Cl)cc3)C(C)(C)C2)C1 [Example 11, (1R,3R)-3-Acetamido-N—((R)-4-((S)-4-(4-chlorophenyl)-4-hydroxy-3,3-dimethylpiperidin-1-yl)-4-oxobutan-2-yl)cyclopentanecarboxamide]",43.9 nM
5,Cc1cc(C)c(C(=O)NC(C)(C)CC(=O)N2CC[C@](O)(c3ccc(Cl)cc3)C(C)(C)C2)cn1 [Example 40],1.5 nM
6,"CC(NC(=O)c1ccccc1)C(C)C(=O)N1CC[C@](O)(c2ccc(Cl)cc2)C(C)(C)C1 (single isomer, unassigned) [Example 72a]",1190 nM
7,"CC1(C)CN(C(=O)CC2(NC(=O)c3ccccc3)CCOCC2)CC[C@]1(O)c1ccc(Cl)cc1 [Example 15, (S)—N-(4-(2-(4-(4-Chlorophenyl)-4-hydroxy-3,3-dimethylpiperidin-1-yl)-2-oxoethyl)tetrahydro-2H-pyran-4-yl)benzamide]",1180 nM
8,CC(C)(CC(=O)N1CC[C@](O)(c2ccc(Cl)cc2)C(C)(C)C1)NC(=O)c1cccc(-n2cnnn2)c1 [Example 50],2.2 nM
9,CC(C)(CC(=O)N1CCC(O)(c2ncc(Cl)cc2Cl)C(C)(C)C1)NC(=O)c1ccccc1 (stereo not drawn) [Example 83],788 nM
10,CC(C)(CC(=O)N1CC[C@](O)(c2ccc(Cl)cc2)C(C)(C)C1)NC(=O)c1cccc(C(N)=O)c1 [Example 42],1.8 nM
11,CC(C)(CC(=O)N1CCC(O)(c2ccc(C#N)cc2)C(C)(C)C1)NC(=O)c1ccccc1 (stereo not drawn) [Example 60],45.3 nM
12,CC(C)[C@@H](CNC(=O)Cc1ccccc1)C(=O)N1CC[C@](O)(c2ccc(Cl)cc2)C(C)(C)C1 [Example 89],809 nM
13,CC1(C)CN(C(=O)CCNC(=O)c2ccccc2)CC[C@]1(O)c1ccc(Cl)cc1 [Example 27],41.6 nM
14,CC(C)(CC(=O)N1CC[C@](O)(c2ccc(Cl)cc2)C(C)(C)C1)NC(=O)C1CCCC1 [Example 35],1.7 nM
15,CCOC(=O)c1cc(C2(O)CCN(C(=O)CC(C)(C)NC(=O)c3ccccc3)CC2(C)C)ccc1Cl (stereo not drawn) [Example 78],991 nM
